Results: patent US8048869B2, “Pharmaceutical composition for use in hormone replacement therapy” (Pantarhei Bioscience B.V., priority 2001, dated 2011)

What was measured:
[1] = target: T1, rat uterine nuclear estrogen receptor (Rattus norvegicus, UniProt P06211); settings: cited from earlier work
T1 construct: host or cells: rat uterus (cytosol and nuclear fractions), Martucci et al. 1976
T1 sequence (P06211 1-600): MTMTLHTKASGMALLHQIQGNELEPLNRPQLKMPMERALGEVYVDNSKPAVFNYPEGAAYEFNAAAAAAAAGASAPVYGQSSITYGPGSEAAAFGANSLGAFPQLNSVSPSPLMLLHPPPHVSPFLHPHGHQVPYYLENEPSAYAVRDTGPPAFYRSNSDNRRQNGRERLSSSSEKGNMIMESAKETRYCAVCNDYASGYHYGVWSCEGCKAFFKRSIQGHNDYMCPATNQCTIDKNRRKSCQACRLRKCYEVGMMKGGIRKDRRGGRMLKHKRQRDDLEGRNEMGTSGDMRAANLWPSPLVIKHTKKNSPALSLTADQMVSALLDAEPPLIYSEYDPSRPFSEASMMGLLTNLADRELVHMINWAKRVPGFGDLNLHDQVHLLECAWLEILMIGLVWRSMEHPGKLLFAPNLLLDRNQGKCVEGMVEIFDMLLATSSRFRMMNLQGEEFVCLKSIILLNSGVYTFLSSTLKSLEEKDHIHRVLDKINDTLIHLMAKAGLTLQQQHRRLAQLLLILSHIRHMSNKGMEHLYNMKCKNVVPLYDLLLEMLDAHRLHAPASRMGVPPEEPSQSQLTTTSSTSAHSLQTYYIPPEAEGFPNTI

[2] = system: nonpregnant ewes; settings: intravenously administered; cited from earlier work
[3] = system: ovariectomized rats; test: Modified 7-day vaginal cornification bioassay with uterine wet weight; format: in vivo, rat; settings: OVX rats, po, 7 days
Description: Uterine weight increase in the rat was chosen as another relevant tissue-specific endpoint to determine the hormonal potency of estetrol (E4), particularly in relationship to its hormonal potency to induce vaginal cornification and to correct for vaginal atrophy. Orally (po) administered E4 was therefore tested in a modified 7-day vaginal cornification bioassay (see also example 1), including uterine wet weight measurements at necropsy, to account for vaginal and uterotrophic effects.
The uterotrophic response has been used for many years to assess estrogenic activity. The typical bioassay uses female rats with low levels of endogenous estrogens (e.g., ovariectomized adults or immature animals). In most assay designs the animals are dosed once or twice daily for 3 or 4 days, and twenty-four hours after the final dose the animals are killed, and the uteri excised and weighed. In the current bioassay, vaginal epithelial cornification, and uterine weight gain was evaluated in ovariectomized adult rats over a 7-day period. In this way, two distinct estrogen sensitive parameters could be evaluated concurrently.
Adult intact female CD rats were ovariectomized to induce estrogen deficiency. […] Castrate vaginal smears are indicative that complete ovariectomy was achieved. […] Animals were orally dosed, once daily for 7 consecutive days with vehicle control (10% ethanol/sesame oil) or either 0.1, 0.3, 1.0, or 3.0 mg/kg/day E4. Daily vaginal lavages continued to be obtained for 7 days after dosing was initiated in order to detect vaginal cornification, as an indication of an estrogenic response. A drop of vaginal washings was placed on a glass slide and examined by light microscopy to detect the presence or absence of cornified epithelial cells. The cells present in the vaginal washings were recorded. Vaginal lavages were obtained prior to dosing on days 0-6 and prior to necropsy on day 7.
On Study Day 7, following vaginal lavage 24 hours after the final dose, all rats were euthanized by CO2 asphyxiation. An abdominal incision was made and the uterus excised, blotted and weighed. The occurrence of vaginal cornification, indicative of an estrogenic response, is an “all or none” response. Therefore, data were expressed as the number of rats showing a vaginal estrogenic response (for one or more days) over the number of rats treated (ratio). A Z-test of proportions was used to compare the four test groups to the vehicle control group. Group means±SEM were also calculated for the uterine weights. […] Therefore, a Kruskal-Wallis non-parametric ANOVA on ranks was performed and significant differences across the four treatment groups and the vehicle control were determined using Dunn's method.

[4] = system: estrogen receptors in the human endometrium; settings: cited from earlier work
[5] = target: T2, human sex Hormone Binding Globulin (SHBG) (Homo sapiens, UniProt P04278); test: Competitive steroid-binding assay, SHBG; settings: [3H]DHT or [3H]estradiol as labeled ligands (FIG. 6)
T2 construct: Human SHBG was purified from transgenic mouse serum, as described previously; from tissue; host or cells: serum of mice transgenic for human SHBG
T2 sequence (P04278 30-402): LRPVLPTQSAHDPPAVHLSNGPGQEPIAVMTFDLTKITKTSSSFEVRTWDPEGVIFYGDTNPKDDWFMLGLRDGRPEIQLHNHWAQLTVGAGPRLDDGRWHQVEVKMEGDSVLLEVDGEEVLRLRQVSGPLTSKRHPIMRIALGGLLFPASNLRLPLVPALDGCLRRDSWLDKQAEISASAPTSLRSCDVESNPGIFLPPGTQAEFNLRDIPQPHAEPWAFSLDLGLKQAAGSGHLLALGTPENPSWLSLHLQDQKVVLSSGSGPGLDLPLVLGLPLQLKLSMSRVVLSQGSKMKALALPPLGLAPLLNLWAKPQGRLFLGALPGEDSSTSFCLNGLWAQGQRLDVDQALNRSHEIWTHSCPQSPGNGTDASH
Protocol: Human SHBG was treated for 30 min at room temperature with a dextran-coated charcoal (DCC) suspension in phosphate buffered saline (PBS) to remove any steroid ligand. After centrifugation (2,000×g for 10 min) to sediment the DCC, the supernatant containing the human SHBG was diluted in PBS to a concentration of 1 nM based on its steroid binding capacity.
After incubation for 1 h at room temperature the. reaction mixtures were placed in an ice bath for a further 15 muin. […] The average amounts of [^3H]labeled ligands bound to SHBG at each concentration of competitor (B) were expressed as a percentage of the average amounts of [^3H]labeled ligands bound to SHBG in the absence of competitor (B0), and were plotted against the concentration of competitor in each assay tube.

## C[C@]12CC[C@@H]3c4ccc(O)cc4CC[C@H]3[C@@H]1[C@@H](O)[C@@H](O)[C@@H]2O [E4, 1,3,5 (10)-estratrien-3,15α,16α,17β-tetrol]
[1]
  relative binding affinity, 17β-estradiol = 100%: 0.3%
[2]
  potency in uterine vasodilation relative to estriol and 17β-estradiol: 15 to 30 times less potent
[3]; 0.1 mg/kg/day
  Uterine weight Mean: 149.2 mg
  Uterine weight Significantly different from vehicle (P < 0.05): no
  Vaginal Cornification Non-responders: 0
  Vaginal Cornification Significantly different from vehicle (P < 0.05): yes
  Vaginal Cornification responders: 8
[3]; 0.3 mg/kg/day
  Uterine weight Mean: 181.2 mg
  Uterine weight Significantly different from vehicle (P < 0.05): no
  Vaginal Cornification Non-responders: 0
  Vaginal Cornification Significantly different from vehicle (P < 0.05): yes
  Vaginal Cornification responders: 8
[3]; 1.0 mg/kg/day
  Uterine weight Mean: 253.7 mg
  Uterine weight Significantly different from vehicle (P < 0.05): yes
  Vaginal Cornification Non-responders: 0
  Vaginal Cornification Significantly different from vehicle (P < 0.05): yes
  Vaginal Cornification responders: 8
[3]; 3.0 mg/kg/day
  Uterine weight Mean: 308.4 mg
  Uterine weight Significantly different from vehicle (P < 0.05): yes
  Vaginal Cornification Non-responders: 0
  Vaginal Cornification Significantly different from vehicle (P < 0.05): yes
  Vaginal Cornification responders: 8
[4]; Tseng et al. 1976
  relative binding constant to the estrogen receptor compared to 17β-estradiol (100%): 6.25%
[4]; Tseng et al. 1978
  Relative binding to estrogen receptors, relative to 17β-estradiol: 1.5%
[5]
  relative binding affinity for human SHBG: does not bind at all
